Read-outs that look alike come from different tables or passages of the source.
Experiments:
Acute toxicity in rats = conditions: rat, in vivo
Experimental: (§1) (1) Acute toxicity and tonic convulsion in hind paw:
(§2) The acute toxicity and tonic convulsion occured by stimulus by hand touch were determined in the following manner to give the results shown in Table 2.
(b) Acute toxicity in rats:
28 Groups, each consisting of 5 rats (male Wistar strain, weight -- 200 g), were used for the test and control groups. The compounds shown in Table 2 were orally administered to the rats. After one week, the survival ratio was measured.

Acute toxicity in mice = conditions: mouse, in vivo
Experimental: as §1, §2
(a) Acute toxicity in mice:
38 Groups, each consisting of 5 mice (male dd-strain, weight -- 18 to 24 g), were used for the test and control groups. The compounds shown in Table 2 were administered orally or intraperitoneally to the mice. After one week, the survival ratio was measured.

[1] = tested on: Triglyceride, phospholipid and free fatty acid in the serum; assay: Determination of triglyceride, phospholipid and free fatty acid in the serum of normal rats; type: in vivo, rats (Wistar strain); conditions: continuous administration for 4 days
Experimental: (ii) Determination of triglyceride, phospholipid and free fatty acid in the serum of normal rats of Wistar strain: Clofibrate and Compounds 1 and 2 were tested in a similar manner to that described in (i). Triglyceride, phospholipid and free fatty acid in the serum were determined in the following manner to give the results shown in Table 5. (a) Determination of triglyceride: Triglyceride was determined by acetylacetone method [Kazuo Matsumiya et al "Rinsho Byori", Vol. 18, page 383 (1970), Japan] in the following manner. Isopropyl alcohol was added to the test solution of the serum to extract triglyceride which was then saponified with potassium hydroxide to give glycerol. The glycerol was oxidized by using sodium salt of methaperiodic acid to convert it into formaldehyde. Color of the test solution was developed by acetylacetone and the optical density at 420 mμ was determined. (b) Determination of phospholipid: "Phospholipid Test Wako", a reagent available from Wako Junyaku K.K., Japan, was used for the determination of phospholipid in the following manner according to a similar manner to that described in "Rinsho Byori", Vol. 17, page 389 (1969), Japan, by Atsuo […] et al. Trichloroacetic acid was added to the serum to give precipitates of lipoprotein which were then added with sulfuric acid and potassium permanganate to form phosphoric acid. Color of the test solution was developed by ammonium molybdate and the optical density was determined at 660 mμ. (c) Determination of free fatty acid: Laurell's method [CLin. Chim. Acta. 16, 57 (1967)] was used for determination in the following manner. […] After shaking for 5 minutes, the solution was centrifuged. 5 Ml of the supernatant was put into another tube and was added with 2 ml of copper reagent. […] The optical density at 550 mμ was determined.

[2] = tested on: cholesterol and triglyceride in the serum; assay: Lipid lowering activity in cynomolgus monkeys; type: in vivo, cynomolgus monkeys (male, born in Malaysia); conditions: 100 mg/kg/day oral, 10 days
Experimental: (6) Lipid lowering activity in cynomolgus monkeys:
6 cynomolgus monkeys (male, born in Malaysia, weight -- 2.5 to 3.9 kg) were used for this test. All monkies were breeded in individual cages at a temperature from 23° to 25° C. and fed with a solid diet for monkey (available from Oriental Yeast K.K., Japan) and sweet potatoes every morning and with apples and bananas from time to time. The monkeys were divided into 3 groups, each consisting of 2 monkeys, to orally and compulsively administer the test compound in an amount of 100 mg/kg/day once in every morning for 10 days. At 11 days after the first administration, before feeding the diet in early morning blood samples were collected from the saphenae of the monkeys to determine cholesterol and triglyceride in a similar manner to that described above. The ratio of lowering cholesterol (RCL) or triglyceride (RLT) was calculated by the following formula. [formula] wherein A is the average amount of the cholesterol or triglyceride in the serum before administration, and B is the corresponding amont after administration for 10 days.
After an interval of 5 weeks, another compound was administered to determine cholesterol or triglyceride in a similar manner to that described above. After a further interval of 5 weeks, a similar procedure was repeated by using another compound to determine cholesterol or triglyceride.

[3] = tested on: hyperlipemia induced by Triton; assay: Effect on hyperlipemia induced by Triton in rats: activity in the decreasing phase; type: in vivo, rats (male Wistar strain); conditions: serum, decreasing phase, 200 mg/kg oral 25 hours after Triton, sampled at 30 hours
Experimental: (§3) (4) Effect on hyperlipemia induced by Triton in rats:
(§4) 3 Groups, each consisting of 9 rats (male Wistar strain, weight -- 200 to 240 g) fasted for 24 hours were used for this test. Each rat was administered intravenously with 200 mg/kg of Triton (WR-1339), followed by oral administration of 200 mg/kg of the compounds shown in Table 6. After 20 hours from the administration, the blood samples were collected by decapitation. Cholesterol and triglyceride in the serum were determined in a similar manner to that used in (2, ii) to give the results shown in Table 6.
(II) Activity in the decreasing phase:
Hyperlipemia occurred by administering Triton (WR-1339) in a similar manner to that in (i). After 25 hours, 200 mg/kg of the compounds were orally administered to the rats. After 30 hours from the injection of Triton, the blood samples were collected by decapitation.

[4] = tested on: hyperlipemia induced by Triton; assay: Effect on hyperlipemia induced by Triton in rats: activity in the increasing phase; type: in vivo, rats (male Wistar strain)
Experimental: as §3
(i) Activity in the increasing phase:
as §4

[5] = tested on: glycerol induced hyperlipemia; assay: Lipid lowering effects on glycerol induced hyperlipemia in rats; type: in vivo, rats (male Wistar strain); conditions: 0.25% in diet
Experimental: (5) Lipid lowering effects on glycerol induced hyperlipemia in rats: The test was carried out in a similar method to that by […] et al [Life Science, 3, 1021 (1964)] . A group consisting of 10 rats (male Wistar strain, weight - 190 to 210 g) was used for each of the test and control groups. Hyperlipemia occurred by feeding the rats ad libitum with water containing 15% (by volume) of glycerol. […] After this, the blood samples were collected by decapitation and the serum was separated by centrifugation.

Cholesterol in the serum = assay: Cholesterol-lowering activity on normal rats of Wistar strain (serum cholesterol, liver weight); type: in vivo, rats (male Wistar strain); conditions: 0.3% in diet; for B - Ratio of decrease of liver weight: continuous administration for 4 days
Experimental: (3) Cholesteral-lowering activity on normal rats of Wistar strain:
(i) 22 Groups, each consisting of 5 rats (male Wistar strain, weight -- 150 to 180 g) were used for the test and control groups. After this, the blood samples were collected by decapitation and then the corpuscle was removed by centrifugation. Cholesterol in the serum was determined by Zurkowski's method modified by Shibata and also the liver was excised and weighed. The results are shown in Table 4 wherein the ratio of 100% denotes the amount of chloresterol and the weight of the liver of normal rats fed with powdery diet without the addition of the compound.

[6] = tested on: hyperlipemia induced by Triton; assay: Cholesterol-lowering activity on hyperlipemia induced by Triton in mice; type: in vivo, mice (male dd-strain); conditions: Mus musculus, read-out: Ratio of the reduction of cholesterol
Experimental: (2) Cholesterol-Lowering activity on hyperlipemia induced by Triton in mice:
38 Groups, each consisting of 9 mice (male dd-strain, weight -- 19 to 21 g), were used for the test and control groups. […] Immediately after the administration and also after 20 hours from the administration of Triton, the mice were orally administered with 100 mg/kg of the compound shown in Table 3. 43 hours after the administration of Triton, the blood samples were collected by decapitation and then the corpuscle was removed by centrifugation. Cholesterol in the serum was determined by Zurkowski's method modified by Shibata (color of the test solution was developed by using sulfoalicyclic acid, acetic acid and sulfuric acid and the optical density of the solution was determined at 620 mμ.

[7] = serum, increasing phase, 200 mg/kg oral, 20 hours
[8] = continuous administration for 14 days

CCOC(=O)C(C)(C)Oc1ccc(Cl)cc1 [Clofibrate, reference compound]
LD50 at 168 h (Acute toxicity in rats; po): > 200 mg/kg
LD50 at 168 h (Acute toxicity in mice; ip): 1620 mg/kg
LD50 at 168 h (Acute toxicity in mice; po): 2100 mg/kg
A - Ratio of decrease of triglyceride [1]: 50.1%
B - Ratio of decrease of phospholipid [1]: 25.0%
C - Ratio of decrease of free fatty acid [1]: 26.7%
cholesterol-lowering activity (in words) [2]: have a cholesterol-lowering activity
Decrease Ratio of Cholesterol ([2]; average of 3 times cross-over): 6.7%
Decrease Ratio of Triglyceride ([2]; average of 3 times cross-over): 9.0%
Cholesterol [3]: 138 mg/dL
Cholesterol, Ratio of decrease [3]: 7.5%
Triglyceride [3]: 401 mg/dL
Triglyceride, Ratio of decrease [3]: -15.6%
activity in the developing phase (in words) ([4]; Clofibrate, Compounds 1 and 2 compared with each other): substantially equal
Cholesterol [4, 7]: 203 mg/dL
Cholesterol, Ratio of decrease [4, 7]: 20.8%
Triglyceride [4, 7]: 856 mg/dL
Triglyceride, Ratio of decrease [4, 7]: 36.0%
activity on lowering triglyceride and cholesterol (in words) [5]: have an activity on lowering triglyceride and cholesterol
Cholesterol ([5]; serum, 15% glycerol in water): 39.1 mg/dL
Cholesterol, Ratio of decrease ([5]; serum, 15% glycerol in water): 30.6%
Triglyceride ([5]; serum, 15% glycerol in water): 129 mg/dL
Triglyceride, Ratio of decrease ([5]; serum, 15% glycerol in water): 74.0%
B - Ratio of decrease of liver weight (Cholesterol in the serum): 40.1%
C - Ratio of decrease of cholesterol (Cholesterol in the serum; [8]): 32.3%
D - Ratio of increase of liver weight (Cholesterol in the serum; [8]): 60.1%
inhibition in vivo at 100 mg/kg ([6]; 100 mg/kg oral, twice (0 and 20 hours after Triton 600 mg/kg i.v.), serum at 43 hours): 40%

COC(=O)[C@H](Cc1ccccc1)NC(=O)SCc1c(C)c(C)c(C)c(C)c1C [Compound 30, N-(2,3,4,5,6-pentamethylbenzylthiocarbonyl)-L-phenylalanine methylester]
LD50 at 168 h (Acute toxicity in rats; oral administration, after one week, read-out: Acute Toxicity (LD50), C): > 100 mg/kg
LD50 at 168 h (Acute toxicity in mice; oral administration, after one week, read-out: Acute Toxicity (LD50), A): > 1000 mg/kg
B - Ratio of decrease of liver weight (Cholesterol in the serum): 11.0%
inhibition in vivo at 100 mg/kg ([6]; po, 43 h): 68%
